The values that follow come from ChEMBL document CHEMBL1667788, “Novel dammarane-type sapogenins from Panax ginseng berry and their biological activities” (Bioorg Med Chem Lett, 2011).

Common to all, as to type: functional, cell-based
One assay deals with COLO 205. Description: Cytotoxicity against human COLO205 cells after 72 hrs by MTT assay. The settings on record: COLO 205, 72 h. For orientation: Tetrazolium dyes change colour on reduction, which living cells bring about.
The subject of a further assay is MCF7. Description: Cytotoxicity against human MCF7 cells after 72 hrs by MTT assay. The conditions noted are these: MCF7, 72 h.
The next assay deals with HL-60. The assay is described as follows: Cytotoxicity against human HL60 cells after 72 hrs by MTT assay. The settings on record: HL-60, 72 h.
The subject of a further assay is HepG2. Description: Cytotoxicity against human HepG2 cells after 72 hrs by MTT assay. The settings on record: HepG2, 72 h.
Another assay relates to A549. Description: Cytotoxicity against human A549 cells after 72 hrs by MTT assay. The settings on record: A549, 72 h.
The next assay deals with DU-145. The assay is described as follows: Cytotoxicity against human DU145 cells after 72 hrs by MTT assay. The settings on record: DU-145, 72 h.

On to `CC(C)[C@]12CC[C@](C)(O1)[C@H]1CC[C@]3(C)[C@@H]1[C@@H](C[C@@H]1[C@@]4(C)CC[C@H](O)C(C)(C)[C@@H]4CC[C@]13C)O2`, for which the IC50 (in general, the midpoint of a concentration-inhibition curve) in the assay on COLO 205 is 70.7 µM; with MCF7, 49 µM; with HL-60, 42.4 µM; in the assay on HepG2 it was 64.1 µM.
As for `CC(C)(O)CCC[C@@](C)(O)[C@H]1CC[C@]2(C)[C@@H]1[C@H](O)C[C@@H]1[C@@]3(C)CC[C@H](O)C(C)(C)[C@@H]3CC[C@]12C`, the IC50 in the assay with COLO 205 turned out to be 18.9 µM; in the assay with MCF7, 34.2 µM; with HL-60, 8.03 µM; with HepG2 it was 45.8 µM; in the assay with A549 it was 29.9 µM.
On to `COC(C)(C)CCC[C@@](C)(O)[C@H]1CC[C@]2(C)[C@@H]1[C@H](O)C[C@@H]1[C@@]3(C)CC[C@H](O)C(C)(C)[C@@H]3CC[C@]12C`, for which the IC50 in the assay with COLO 205 stood at 14.2 µM; in the assay on DU-145, 11.8 µM; with MCF7, 8.34 µM; in the assay with HL-60, 8.48 µM; in the assay on HepG2 it was 8.32 µM; in the assay with A549 it was 35.6 µM.
For the molecule `CC(C)=CCCC(C)(O)[C@H]1CC[C@]2(C)[C@@H]1[C@H](O)C[C@@H]1[C@@]3(C)CC[C@H](O)C(C)(C)[C@@H]3CC[C@]12C` (single isomer, unassigned), the IC50 with COLO 205 came to 49.2 µM; in the assay with DU-145, 60.4 µM; in the assay with MCF7, 6.62 µM; with HL-60 it was 27.1 µM; in the assay on HepG2, 39.4 µM; in the assay on A549 it was 99.9 µM.
